Test results taken from patent US4347319A, “Microbiological epoxidation process” (priority 1980, dated 1982).

What was measured:
[1] = tested on: cell extract of Torulopsis sp. strain A1 NRRL-Y-11,419; test: Oxidation of secondary alcohols to methylketone by cell extracts of yeasts; type: biochemical; conditions: methanol-grown; cell extract + NAD^+; sec. alcohol to methyl ketone; gas chromatography
[2] = tested on: purified secondary alcohol dehydrogenase from Pichia sp. NRRL Y-11,328; test: Substrate specificity, electron acceptor and stoichiometry of purified yeast SADH; type: biochemical; conditions: examined spectrophotometrically
[3] = tested on: Methylobacterium organophilum (CRL 26 R6) NRRL B-11,222; test: Oxidation by washed cell suspensions of methane-grown cells; type: cell-based; conditions: methane-grown cells; isopropanol to acetone, 2-butanol to 2-butanone
Summary of the method: (§1)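 Products were quantified by gas chromatography (flame ionization) in headspace/liquid samples taken periodically from sealed vials. Each vial held 2 mg washed methane-grown cells in 0.15 M phosphate pH 7.0 under a 1:1 substrate/oxygen gas phase, shaken at 30 °C.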

[4] = tested on: Methylomonas rubrum (CRL M6P) NRRL B-11,210; test: as above; type: cell-based; conditions: methane-grown cells; isopropanol to acetone
Summary of the method: as §1

[5] = tested on: Methylococcus capsulatus (CRL M1) NRRL B-11,219; test: as above; type: cell-based; conditions: methane-grown cells; isopropanol to acetone, 2-butanol to 2-butanone
Summary of the method: as §1

[6] = tested on: Methylobacter chroococcum (CRL M6) NRRL B-11,214; test: as above; type: cell-based; conditions: methane-grown cells; isopropanol to acetone, 2-butanol to 2-butanone
Summary of the method: as §1

[7] = tested on: Methylosinus trichosporium (CRL 15 PM1) NRRL B-11,202; test: as above; type: cell-based; conditions: methane-grown cells; isopropanol to acetone, 2-butanol to 2-butanone
Summary of the method: as §1

[8] = tested on: cell extract of Candida utilis ATCC 26,387; test: Oxidation of secondary alcohols to methylketone by cell extracts of yeasts; type: biochemical; conditions: methanol-grown; cell extract + NAD^+; sec. alcohol to methyl ketone; gas chromatography
[9] = tested on: Methylobacter bovis CRL 19 NRRL B-11,217; test: Sec. alcohol oxidation by cell suspensions of methanol-grown cells; type: cell-based; conditions: sec. alcohol to methyl ketone
Text: (§2) In this example, the procedure of Example 1 was repeated except that a plurality of the methane-utilizing methylotrophic microorganisms of the invention were each aerobically grown in a methanol-containing nutrient medium instead of a methane-containing medium. The nutrients in the medium were the same as indicated in Example 1 except that 0.4% v/v methanol was used as the alcohol dehydrogenase enzyme inducer and major source of carbon and energy for growth. Following growth the cells were harvested and washed as described in Example 1. The resting cells of the induced methanol-grown methylotrophic microorganisms were then contacted with a […] under aerobic conditions in a buffered solution by the procedure described in Example 1.

[10] = tested on: Methylococcus capsulatus CRL M1 NRRL B-11,219; test: as above; type: cell-based; conditions: sec. alcohol to methyl ketone
Text: as §2

[11] = tested on: Methylomonas streptobacterium CRL 17 PM3 NRRL B-11,208; test: as above; type: cell-based; conditions: sec. alcohol to methyl ketone
Text: as §2

[12] = tested on: Methylosinus trichosporium CRL 15 NRRL B-11,202; test: as above; type: cell-based; conditions: sec. alcohol to methyl ketone
Text: as §2

[13] = tested on: Methylomonas methanica CRL M4P NRRL B-11,205; test: as above; type: cell-based; conditions: sec. alcohol to methyl ketone
Text: as §2

[14] = tested on: Methylobacterium organophilum CRL 26 NRRL B-11,222; test: as above; type: cell-based; conditions: sec. alcohol to methyl ketone
Text: as §2

[15] = tested on: Methylococcus capsulatus CRL 25 NRRL B-11,221; test: as above; type: cell-based; conditions: sec. alcohol to methyl ketone
Text: as §2

[16] = tested on: Methylobacter chroococcum CRL M6 NRRL B-11,214; test: as above; type: cell-based; conditions: sec. alcohol to methyl ketone
Text: as §2

[17] = tested on: Methylobacter vinelandii CRL M5Y NRRL B-11,218; test: as above; type: cell-based; conditions: sec. alcohol to methyl ketone
Text: as §2

[18] = tested on: Methylocystis parvus CRL 18 NRRL B-11,204; test: as above; type: cell-based; conditions: sec. alcohol to methyl ketone
Text: as §2

[19] = tested on: Hansenula polymorpha ATCC 26012; test: Oxidation of sec-alcohols to ketones by cell suspensions of yeasts; type: cell-based; conditions: sec-alcohol to methyl ketone
[20] = tested on: purified secondary alcohol dehydrogenase (SADH) from Pseudomonas sp. ATCC 21439; test: Kinetics and substrate specificity of purified SADH; type: biochemical; conditions: 2-butanol = 100%
[21] = tested on: cell extract of Pichia sp. NRRL-Y-11,328; test: Oxidation of secondary alcohols to methylketone by cell extracts of yeasts; type: biochemical; conditions: methanol-grown; cell extract + NAD^+; sec. alcohol to methyl ketone; gas chromatography
Pichia sp. NRRL-Y-11328 = test: Oxidation of sec-alcohols to ketones by cell suspensions of yeasts; type: cell-based; conditions: sec-alcohol to methyl ketone
[22] = tested on: Methylobacter bovis (CRL M1Y) NRRL B-11,216; test: Oxidation by washed cell suspensions of methane-grown cells; type: cell-based; conditions: methane-grown cells; isopropanol to acetone, 2-butanol to 2-butanone
Description: The pH of the nutrient medium was adjusted to 7.0 by the addition of acid or base and 50 ml samples of the nutrient medium were charged into a plurality of 300 ml shaker flasks. The shaker flasks were inoculated with an inoculating loop of cells from an agar plate containing homogeneous colonies of the microorganisms on the plate (the purity of the isolates was confirmed by microscopic examination. The isolates had been maintained on agar plates under an atmosphere of methane and air having a 1:1 v/v gas ratio which had been transferred evey two weeks. The gaseous phase of the inoculated flasks was then replaced with a gas mixture comprised of methane and air having a ratio of 1:1 on a v/v basis. […]
The cells were harvested by centrifugation at 10,000×g. at 4° C. for 30 minutes. The cell pellet was washed twice with a 0.15 M phosphate buffer at a pH of 7.0 (containing 0.002 M MgCl2). The washed cells were then suspended in a 0.15 M phosphate buffer at pH 7.0.
A 0.5 ml sample of each washed cell suspension (2 mg cells) was put into 10 ml vials at 4° C. which were sealed with a rubber cap. The gaseous phase of the vials was removed with vacuum and then was replaced with a gas mixture of the oxidative substrate (e.g., methane) and oxygen at a 1:1 v/v ratio. The vials were then incubated at 30 ° C. on a rotary shaker at 300 rpm. Samples of product (3 μl) were withdrawn periodically with a microsyringe and the products were analyzed by gas chromatography (ionization flame detector column).
The newly discovered and isolated microorganism strains of the present invention were each grown aerobically in the presence of methane in the manner described above. The methane-grown microbial cells were then washed, recovered and put to use in oxidizing an oxidative substrate by the procedure described above except in the case of a liquid substrate 10 μl of the substrate were used.

[23] = tested on: cell extract of Hansenula polymorpha ATCC 26,012; test: Oxidation of secondary alcohols to methylketone by cell extracts of yeasts; type: biochemical; conditions: methanol-grown; cell extract + NAD^+; sec. alcohol to methyl ketone; gas chromatography
[24] = tested on: Torulopsis sp. Strain A1 (NRRLY-11,419); test: Oxidation of sec-alcohols to ketones by cell suspensions of yeasts; type: cell-based; conditions: sec-alcohol to methyl ketone
[25] = tested on: Kloeckera sp. Strain A2 (NRRLY-11,420); test: as above; type: cell-based; conditions: sec-alcohol to methyl ketone
[26] = tested on: cell extract of Kloeckera sp. strain A2 NRRL-Y-11,420; test: Oxidation of secondary alcohols to methylketone by cell extracts of yeasts; type: biochemical; conditions: methanol-grown; cell extract + NAD^+; sec. alcohol to methyl ketone; gas chromatography
[27] = tested on: Candida utilis ATCC 26387; test: Oxidation of sec-alcohols to ketones by cell suspensions of yeasts; type: cell-based; conditions: sec-alcohol to methyl ketone

CC(C)O [Isopropanol]
Conversion Rate [1]: 4.5 μmoles/hr/mg Protein
oxidation by the purified enzyme [2]: catalyzed the oxidation
Conversion Rate to Ketone, 2 hrs. [3]: 3 μmole/2 mg protein
Conversion Rate to Ketone, 2 hrs. [4]: 1 μmole/2 mg protein
Conversion Rate to Ketone, 2 hrs. [5]: 3 μmole/2 mg protein
Conversion Rate to Ketone, 20 hrs. [5]: 15 μmole/2 mg protein
Conversion Rate to Ketone, 2 hrs. [6]: 1 μmole/2 mg protein
Conversion Rate to Ketone, 20 hrs. [6]: 8 μmole/2 mg protein
Conversion Rate to Ketone, 2 hrs. [7]: 3 μmole/2 mg protein
Conversion Rate [8]: 4.5 μmoles/hr/mg Protein
Conversion Rates [9]: 0.40 μmoles/hr/mg protein
Conversion Rates [10]: 5.0 μmoles/hr/mg protein
Conversion Rates [11]: 0.67 μmoles/hr/mg protein
Conversion Rates [12]: 0.50 μmoles/hr/mg protein
Conversion Rates [13]: 2.0 μmoles/hr/mg protein
Conversion Rates [14]: 0.72 μmoles/hr/mg protein
Conversion Rates [15]: 0.62 μmoles/hr/mg protein
Conversion Rates [16]: 1.0 μmoles/hr/mg protein
Conversion Rates [17]: 2.0 μmoles/hr/mg protein
Conversion Rates [18]: 0.25 μmoles/hr/mg protein
Conversion Rate ([19]; growth substrate Ethanol): 5.0 μmoles/hr/mg of protein
Conversion Rate ([19]; growth substrate Methanol): 5.9 μmoles/hr/mg of protein
Conversion Rate ([19]; growth substrate Methylamine): 5.2 μmoles/hr/mg of protein
Conversion Rate ([19]; growth substrate Methylformate): 5.6 μmoles/hr/mg of protein
Conversion Rate ([19]; growth substrate Propylamine): 4.1 μmoles/hr/mg of protein
relative percent rate of oxidation [20]: 85%
Conversion Rate [21]: 5.5 μmoles/hr/mg Protein
Conversion Rate (Pichia sp. NRRL-Y-11328; growth substrate Ethanol): 4.5 μmoles/hr/mg of protein
Conversion Rate (Pichia sp. NRRL-Y-11328; growth substrate Methanol): 5.2 μmoles/hr/mg of protein
Conversion Rate (Pichia sp. NRRL-Y-11328; growth substrate Methylamine): 4.2 μmoles/hr/mg of protein
Conversion Rate (Pichia sp. NRRL-Y-11328; growth substrate Methylformate): 4.9 μmoles/hr/mg of protein
Conversion Rate (Pichia sp. NRRL-Y-11328; growth substrate Propylamine): 3.2 μmoles/hr/mg of protein
Conversion Rate to Ketone, 2 hrs. [22]: 5 μmole/2 mg protein
Conversion Rate [23]: 4.8 μmoles/hr/mg Protein
Conversion Rate ([24]; growth substrate Ethanol): 4.2 μmoles/hr/mg of protein
Conversion Rate ([24]; growth substrate Methanol): 4.5 μmoles/hr/mg of protein
Conversion Rate ([24]; growth substrate Methylamine): 4.3 μmoles/hr/mg of protein
Conversion Rate ([24]; growth substrate Methylformate): 4.5 μmoles/hr/mg of protein
Conversion Rate ([24]; growth substrate Propylamine): 3.2 μmoles/hr/mg of protein
Conversion Rate ([25]; growth substrate Ethanol): 4.5 μmoles/hr/mg of protein
Conversion Rate ([25]; growth substrate Methanol): 4.8 μmoles/hr/mg of protein
Conversion Rate ([25]; growth substrate Methylamine): 4.0 μmoles/hr/mg of protein
Conversion Rate ([25]; growth substrate Methylformate): 4.9 μmoles/hr/mg of protein
Conversion Rate ([25]; growth substrate Propylamine): 4.0 μmoles/hr/mg of protein
Conversion Rate [26]: 4.8 μmoles/hr/mg Protein
Conversion Rate ([27]; growth substrate Ethanol): 5.2 μmoles/hr/mg of protein
Conversion Rate ([27]; growth substrate Methanol): 6.2 μmoles/hr/mg of protein
Conversion Rate ([27]; growth substrate Methylamine): 5.0 μmoles/hr/mg of protein
Conversion Rate ([27]; growth substrate Methylformate): 5.6 μmoles/hr/mg of protein
Conversion Rate ([27]; growth substrate Propylamine): 4.2 μmoles/hr/mg of protein
